Laboratory results reported in patent US20250263677A1, “BIOCATALYTIC USE OF NONHEME IRON PROTEINS FOR MOLECULAR FUNCTIONALIZATION” (The Johns Hopkins University, priority 2022, published 2025).
Read-outs that look alike come from different tables or passages of the source.

Columns and labels:
Assay type in all cases: biochemical
[1] = biological target: Streptomyces avermitilis (4-hydroxyphenyl)pyruvate dioxygenase (Sav HppD) variant Az1 V189A F216A P243A N245Q Q255A L367I, SEQ ID NO: 2 (Streptomyces avermitilis, UniProt Q53586, F216A/L367I/N245Q/P243A/Q255A/V189A); experiment: Kinetic analysis of 1NF azidation by purified Sav HppD Az1 (anaerobic, GCMS product quantification); details: Az1 vs wt
Chain of Streptomyces avermitilis (4-hydroxyphenyl)pyruvate dioxygenase (Sav HppD) variant Az1 V189A F216A P243A N245Q Q255A L367I, SEQ ID NO: 2 (Q53586 whole entry V189A/F216A/P243A/N245Q/Q255A/L367I): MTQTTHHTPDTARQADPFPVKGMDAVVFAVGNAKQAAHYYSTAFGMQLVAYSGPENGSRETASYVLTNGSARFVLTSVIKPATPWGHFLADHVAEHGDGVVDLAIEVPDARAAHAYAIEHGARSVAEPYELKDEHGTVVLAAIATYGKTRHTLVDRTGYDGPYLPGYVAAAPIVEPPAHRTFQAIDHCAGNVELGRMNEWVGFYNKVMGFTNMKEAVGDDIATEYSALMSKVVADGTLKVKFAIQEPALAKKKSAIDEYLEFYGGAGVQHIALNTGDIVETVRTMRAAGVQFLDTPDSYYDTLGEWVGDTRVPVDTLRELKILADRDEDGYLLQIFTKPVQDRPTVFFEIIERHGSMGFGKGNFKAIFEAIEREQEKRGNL
Protocol: (§1) FIG. 10 is a series of plots which summarize kinetics for non-heme iron enzyme mediated azidation reactions. The leftmost plot provides kinetics data for wild-type Sav HppD. The middle plot provides kinetics data for Az1 Sav HppD. The rightmost plot provides kinetics data for Az2 Sav HppD.
(§2) Protein expression was conducted following the protocols detailed in section (B). E. coli cells expressing non-heme iron enzyme variants were pelleted (4,000×g, 5 min, 4° C.) and stored at −20° C. for at least 24 hours. The cell pallet was then resuspended in 50 mM KPi buffer containing 100 mM NaCl and 20 mM imidazole (pH 7.5 at 25° C.) (10 mL buffer per gram of cell pellet). […] Fractions containing purified proteins were detected by SDS-PAGE, pooled and concentrated using Millipore® centrifugal filter. […] Final concentration was measured by absorbance at 280 nm using a NanoDrop spectrophotometer. The theoretical extinction coefficients (M^−1 cm^−1) used for Say HppD and its variants were calculated using ExPASy Bioinformatics Resources Portal. […]
(§3) Kinetic analyses for wild-type Sav HppD, Az1, and Az2 mediated 1NF azidation were performed in an anaerobic chamber. […] After centrifugation at 12,000 rpm for 10 mins, an aliquot (200 μL) of the organic layer was taken for GCMS analysis for product quantification.

[2] = biological target: Streptomyces avermitilis (4-hydroxyphenyl)pyruvate dioxygenase (Sav HppD) variant Az2 V189A N191A S230L P243G N245F Q255P L367I, SEQ ID NO: 3 (Streptomyces avermitilis, UniProt Q53586, L367I/N191A/N245F/P243G/Q255P/S230L/V189A); experiment: Kinetic analysis of 1NF azidation by purified Sav HppD Az2 (anaerobic, GCMS product quantification); details: comparator not given
Chain of Streptomyces avermitilis (4-hydroxyphenyl)pyruvate dioxygenase (Sav HppD) variant Az2 V189A N191A S230L P243G N245F Q255P L367I, SEQ ID NO: 3 (Q53586 whole entry V189A/N191A/S230L/P243G/N245F/Q255P/L367I): as the sequence (Q53586 whole entry V189A/F216A/P243A/N245Q/Q255A/L367I) above, with N191A, A216F, S230L, A243G, Q245F, A255P counted along it
Protocol: as §1, §2, §3

[3] = Replacement of azide with other halide or pseudohalide anions, Sav HppD Az1 cell lysate
Protocol: We also tried to extend the scope of N-radical precursors and replace azide with other halide or pseudohalide anions, the results of which analyses are summarized in TABLE 5. For these analyses. ferrous ammonium sulfate (10 μL, 100 mM in water), sodium halide or pseudohalide solution (10 μL, 1 M in water), and N-fluoroamide substrate 1NF (10 μL, 400 mM in DME) were added to a 2 mL vial containing Sav HppD Az1 cell lysate (400 μL, obtained from OD600=20 cell suspension) in an anerobic chamber. The vial was capped and shaken at 680 rpm at room temperature for 24 hours. At the end of the reaction, the vial was opened and the reaction was quenched with 0.8 mL of a hexanes/ethylacetate solution (4:6 v/v) of internal standard 1,2,3-trimethoxybenzene (0.5 mM final concentration). The reaction mixture was transferred to a 2 mL microcentrifuge tube, vortexed (10 seconds, 3 times), then centrifuged (14,000×g, 5 min) to completely separate the organic and aqueous layers. […]

[4] = Sav HppD Az1 cell lysate (OD600=20), 1NF, GCMS peak area over internal standard, 24 hours

Compound	IA/internal [3, 4]	IF/internal [3, 4]	other results
CCc1ccccc1C(=O)N(F)C(C)(C)C [1NF, N-(tert-butyl)-2-ethyl-N-fluorobenzamide]			increase in KM over the wild-type enzyme [1]: 1.7 fold; increase in kcat over the wild-type enzyme [1]: 4.1 fold; decrease in KM [2]: 6.6 fold; decrease in kcat [2]: 9 fold
[Br-].[Na+] [NaBr]	2.4	0.04	
[Cl-].[Na+] [NaCl]			IA/internal [3]: 2.3; IF/internal [3]: 0.04
[F-].[Na+] [NaF]	2.5	0.04	
O=N[O-].[Na+] [NaNO2]			IA/internal [3]: 1.9; IF/internal [3]: 0.03
N#C[O-].[Na+] [NaOCN]	2.1	0.03	
N#C[S-].[Na+] [NaSCN]	2.7	0.05	
